Reference: patent US10632181B2, “Composition, containing RGD motif-containing peptide or fragment thereof, for treating burns and glaucoma, alleviating skin wrinkles, and promoting hair growth” (HUONS CO., LTD., priority 2014, dated 2020)

How the values were obtained:
Format in all cases: in vivo, Women aged 30-65
wrinkles around eyes [1] = assay: Wrinkle extent around eyes, skin replica, Visiometer SV600; design: R3 numerical value (average roughness) / R1 numerical value (skin roughness) / R4 numerical value (smoothness depth) / R5 numerical value (arithmetic average roughness): unit not given here
Experimental: The extent of wrinkles around eyes was measured using equipment. A target site to measure the wrinkle extent was regions around the eyes of the subjects, and the left side and the right side of the face were set as a measurement site. To measure the wrinkle extent, the subjects were allowed to wash the measurement site with water, and take a rest for 30 minutes in the waiting room under constant temperature and constant humidity conditions of indoor temperature 20-25° C. and humidity 40-60% to acclimate the skin surface temperature and humidity to the environment of the measurement space, and were not permitted to drink water during the rest. For objective measurement, measurements were performed by one researcher, and the same site was measured at each time of the first visit before use and the second and third visits in 2 and 4 weeks after use. Transparency profilometry analysis was performed using Visiometer SV600 (Courage-Khazaka electronic GmbH, Germany) on skin replica of the site to which test product and control product were applied before use and 2 and 4 weeks after use, and to identify if there is any difference in each of control group and experimental group after use, a change (%) in R1, R2, R4, R5 measurement values in 2 and 4 weeks after use relative to before use was analyzed.

wrinkles around eyes [2] = assay: Survey of subjects about wrinkle reduction effectiveness
Experimental: Furthermore, surveying the subjects about effectiveness was conducted. The subjects were asked to personally make responses about the extent to which the subjects felt that wrinkles reduced after use of test product using 5 levels: better (4), a little bit better (3), no change (2), a little bit worse (1), worse (0). The researcher determined if test product has efficacy by calculating the percentage of the number of subjects for each response.

wrinkles around eyes [3] = assay: Wrinkle extent around eyes by 3D imaging (PRIMOS Premium); conditions: for Rmax numerical value (maximum height of wrinkle profile) / Rp numerical value (maximum profile peak height) / Rv numerical value (maximum profile valley depth): in µm (unit assumed)
Experimental: Furthermore, the wrinkle extent was measured by 3D imaging. A target site to measure the wrinkle extent was regions around the eyes of the subjects, and the right side of the face was set as a measurement site. To measure the wrinkle extent, the subjects were allowed to wash the measurement site with water, and take a rest for 30 minutes in the waiting room under constant temperature constant humidity conditions of indoor temperature 20-25° C. and humidity 40-60% to acclimate the skin surface temperature and humidity to the environment of the measurement space, and were not permitted to drink water during the rest. For objective measurement, measurements were performed by one researcher, and the same site was measured at each time of the first visit before use and the second and third visits in 2 and 4 weeks after use. Before use and in 2 and 4 weeks after use, images of the site to which the test product (HU022 (SEQ ID NO:1)) was applied were formed using 3D skin imaging machine (PRIMOS Premium), and to verify if there is any difference in each of control group and experimental group in 4 weeks after use, wrinkle parameters, Ra, Rmax, Rt, Rp, Rv values, in the stored images of 2 weeks and 4 weeks after use relative to before use were analyzed.

wrinkles around eyes [4] = assay: Expert visual assessment of wrinkles (global photodamage score); conditions: for expert visual assessment score: severity 0-7
Experimental: Furthermore, visual assessment was performed. At each visit before and after use, experts assessed the wrinkle extent by scoring using global photodamage score (Br J Dermatol. 2010; 162(3):497-502). To verify if there is any difference in each of control group and experimental group in 4 weeks after use, a change (%) in visual assessment scores of 2 weeks and 4 weeks after use relative to before use was analyzed. The visual assessment scores are as follows (Table 18): […]

wrinkles around eyes [5] = assay: Wrinkle extent around eyes, skin replica, Visiometer SV600; design: R3 numerical value (average roughness): unit not given here; conditions: Before use
[6] = response 2 (fair), 4 weeks after use
[7] = response 3 (good), 4 weeks after use

Substance: HU022: polypeptide consisting of 452nd-509th amino acids of ADAM 15 (GenBank AAH14566.1), 58 amino acids; commercial product (EYEGENE Inc.)
- R1 numerical value (skin roughness) (wrinkles around eyes [1]; 2 weeks after use, twice daily): 54.59 ± 10.99
- R2 numerical value (maximum roughness) (wrinkles around eyes [1]; 2 weeks after use, twice daily): 36.87 ± 6.02
- R3 numerical value (average roughness) (wrinkles around eyes [1]; 2 weeks after use, twice daily): 24.41 ± 4.16
- R4 numerical value (smoothness depth) (wrinkles around eyes [1]; 2 weeks after use, twice daily): 23.64 ± 5.11
- R5 numerical value (arithmetic average roughness) (wrinkles around eyes [1]; 2 weeks after use, twice daily): 9.44 ± 2.44
- R1 numerical value (skin roughness) (wrinkles around eyes [1]; 4 weeks after use, twice daily): 51.06 ± 19.28
- R2 numerical value (maximum roughness) (wrinkles around eyes [1]; 4 weeks after use, twice daily): 29.16 ± 5.12
- R3 numerical value (average roughness) (wrinkles around eyes [1]; 4 weeks after use, twice daily): 18.62 ± 2.79
- R4 numerical value (smoothness depth) (wrinkles around eyes [1]; 4 weeks after use, twice daily): 22.94 ± 10.03
- R5 numerical value (arithmetic average roughness) (wrinkles around eyes [1]; 4 weeks after use, twice daily): 10.10 ± 5.97
- R1 numerical value (skin roughness) (wrinkles around eyes [1]; Before use): 76.23 ± 12.15
- R2 numerical value (maximum roughness) (wrinkles around eyes [1]; Before use): 54.26 ± 5.70
- R4 numerical value (smoothness depth) (wrinkles around eyes [1]; Before use): 30.41 ± 7.01
- R5 numerical value (arithmetic average roughness) (wrinkles around eyes [1]; Before use): 13.57 ± 3.65
- Change(%) in R1 (wrinkles around eyes [1]; Before use-2 weeks after use): −28.38%
- Change(%) in R4 (wrinkles around eyes [1]; Before use-2 weeks after use): −22.27%
- Change(%) in R5 (wrinkles around eyes [1]; Before use-2 weeks after use): −30.43%
- Change(%) in R1 (wrinkles around eyes [1]; Before use-4 weeks after use): −33.02%
- Change(%) in R3 (wrinkles around eyes [1]; Before use-4 weeks after use): −45.62%
- Change(%) in R4 (wrinkles around eyes [1]; Before use-4 weeks after use): −24.57%
- Change(%) in R5 (wrinkles around eyes [1]; Before use-4 weeks after use): −26.52%
- Number of subjects, wrinkle reduction survey (wrinkles around eyes [2]; response 0 (very bad), 4 weeks after use): 0
- Number of subjects, wrinkle reduction survey (wrinkles around eyes [2]; response 1 (bad), 4 weeks after use): 0
- Number of subjects, wrinkle reduction survey (wrinkles around eyes [2]; [6]): 1
- Percentage of subjects, wrinkle reduction survey (wrinkles around eyes [2]; [6]): (16.7) %
- Number of subjects, wrinkle reduction survey (wrinkles around eyes [2]; [7]): 5
- Percentage of subjects, wrinkle reduction survey (wrinkles around eyes [2]; [7]): (83.3) %
- Number of subjects, wrinkle reduction survey (wrinkles around eyes [2]; response 4 (very good), 4 weeks after use): 0
- Mean of wrinkle reduction survey response (wrinkles around eyes [2]; scale 0-4, 4 weeks after use): 2.83
- survey assessment about wrinkle reduction, test product versus control product (wrinkles around eyes [2]; third visit, 4 weeks after use): test product was better at reducing wrinkles than control product
- Ra numerical value (roughness average of wrinkle profile) (wrinkles around eyes [3]; 2 weeks after use, twice daily): 18.20 ± 3.94
- Rt numerical value (distance between highest peak and lowest valley) (wrinkles around eyes [3]; 2 weeks after use, twice daily): 187.85 ± 34.10
- Rmax numerical value (maximum height of wrinkle profile) (wrinkles around eyes [3]; 2 weeks after use, twice daily): 168.83 ± 29.61
- Rp numerical value (maximum profile peak height) (wrinkles around eyes [3]; 2 weeks after use, twice daily): 116.47 ± 35.75
- Rv numerical value (maximum profile valley depth) (wrinkles around eyes [3]; 2 weeks after use, twice daily): 71.38 ± 16.44
- Ra numerical value (roughness average of wrinkle profile) (wrinkles around eyes [3]; 4 weeks after use, twice daily): 17.00 ± 3.88
- Rt numerical value (distance between highest peak and lowest valley) (wrinkles around eyes [3]; 4 weeks after use, twice daily): 184.63 ± 36.83
- Rmax numerical value (maximum height of wrinkle profile) (wrinkles around eyes [3]; 4 weeks after use, twice daily): 168.80 ± 33.21
- Rp numerical value (maximum profile peak height) (wrinkles around eyes [3]; 4 weeks after use, twice daily): 121.88 ± 38.06
- Rv numerical value (maximum profile valley depth) (wrinkles around eyes [3]; 4 weeks after use, twice daily): 62.75 ± 11.92
- Ra numerical value (roughness average of wrinkle profile) (wrinkles around eyes [3]; Before use): 19.19 ± 4.27
- Rt numerical value (distance between highest peak and lowest valley) (wrinkles around eyes [3]; Before use): 195.05 ± 31.31
- Change(%) in Ra (wrinkles around eyes [3]; Before use-2 weeks after use): −5.15%
- Change(%) in Rmax (wrinkles around eyes [3]; Before use-2 weeks after use): −4.23%
- Change(%) in Rp (wrinkles around eyes [3]; Before use-2 weeks after use): −5.10%
- Change(%) in Rt (wrinkles around eyes [3]; Before use-2 weeks after use): −3.69%
- Change(%) in Rv (wrinkles around eyes [3]; Before use-2 weeks after use): −1.30%
- Change(%) in Ra (wrinkles around eyes [3]; Before use-4 weeks after use): −11.42%
- Change(%) in Rmax (wrinkles around eyes [3]; Before use-4 weeks after use): −4.25%
- Change(%) in Rp (wrinkles around eyes [3]; Before use-4 weeks after use): −0.70%
- Change(%) in Rt (wrinkles around eyes [3]; Before use-4 weeks after use): −5.35%
- Change(%) in Rv (wrinkles around eyes [3]; Before use-4 weeks after use): −13.24%
- Rmax numerical value (maximum height of wrinkle profile) (wrinkles around eyes [3]; Before use): 176.29 ± 27.79
- Rp numerical value (maximum profile peak height) (wrinkles around eyes [3]; Before use): 122.73 ± 31.55
- Rv numerical value (maximum profile valley depth) (wrinkles around eyes [3]; Before use): 72.32 ± 17.16
- expert visual assessment score (wrinkles around eyes [4]; 2 weeks after use): 2.17 ± 0.75
- expert visual assessment score (wrinkles around eyes [4]; 4 weeks after use): 1.67 ± 1.03
- expert visual assessment score (wrinkles around eyes [4]; Before use): 2.17 ± 0.75
- Change(%) in expert visual assessment score (wrinkles around eyes [4]; Before use-2 weeks after use): 0%
- Change(%) in expert visual assessment score (wrinkles around eyes [4]; Before use-4 weeks after use): −23.08%
- R3 numerical value (average roughness) (wrinkles around eyes [5]): 34.24 ± 3.51
